Experimental data taken from patent US20120177797A1, “TASTE ENHANCING AGENT” (J-OIL MILLS, INC., priority 2009, published 2012).

What was measured:
Format in all cases: in vivo
[1] = Sensory evaluation, intensity of umami in diluted soy sauce; settings: 10 ppm in soy sauce diluted to 2% in water; aldehyde-free = 3.0; scale 1.0-5.0
Description: (§1) All sensory evaluation of taste was performed by individuals wearing a nose clip. The evaluation was performed by groups of three individuals, and the scores were averaged.
(§2) Sensory evaluation was performed for “Intensity of Umani ” and “ Intensity of Saltiness “. The score of aldehyde-free taste intensity was set to 3.0, and taste intensity upon addition was evaluated as follows. The results are shown in Table 7. • 1.0: Much weaker • 2.0: Weaker • 3.0: Similar • 4.0: Stronger • 5.0: Much stronger

[2] = Sensory evaluation whether salt usage can be reduced; settings: 10 ppm added to 0.5% aqueous NaCl solution
Description: as §1
Evaluation was conducted to find whether salt usage can be reduced by the taste enhancing effects. To a 0.5% aqueous NaCl solution was added 10 ppm n-hexanal or 10 ppm 1-octen-3-ol. Taste intensity was determined in the sensory evaluation where the taste intensity of the 0.5% NaCl solution was set to 3.0. For comparison, sensory evaluation was also performed for a 0.8% and 0.6% concentration of aqueous NaCl solution. The sensory evaluation was evaluated as follows. The results are shown in Table 5. • 1.0: Much weaker • 2.0: Weaker • 3.0: Similar • 4.0: Stronger • 5.0: Much stronger

[3] = Sensory evaluation, intensity of sweetness in whipped cream; settings: 100 ppm in whipped cream; aldehyde-free = 3.0; scale 1.0-5.0
Description: as §1
Sensory evaluation was performed for “Intensity of sweetness”. The score of aldehyde-free taste intensity was set to 3.0, and taste intensity upon addition was evaluated as follows. The results are shown in Table 8. • 1.0: Much weaker • 2.0: Weaker • 3.0: Similar • 4.0: Stronger • 5.0: Much stronger

[4] = Sensory evaluation, intensity of umami in aqueous MSG solution; settings: additive-free = 3.0
Description: as §1
(§3) To a 0.2% aqueous sodium glutamate (MSG) solution (=umami), a 0.8% aqueous salt (NaCl) solution (=saltiness) and a 2% aqueous sucrose solution (=sweetness) were added 10 ppm linear aliphatic aldehydes having 3-12 carbon atoms shown in Table 1, respectively. Sensory evaluation was performed in which intensity of taste sensed when each of the aqueous solutions is introduced into the mouth is defined as “Intensity of umami” for the aqueous MSG solution, “Intensity of saltiness” for the aqueous NaCl solution and “Intensity of sweetness” for the aqueous sucrose solution. The score of aldehyde-free taste intensity was set to 3.0, and taste intensity upon addition of aldehyde was evaluated as follows. The results are shown in Table 1. • 1.0: Much weaker • 2.0: Weaker • 3.0: Similar • 4.0: Stronger • 5.0: Much Stronger
(§4) To a 0.2% aqueous sodium glutamate (MSG) solution (=umami), a 0.8% aqueous salt (NaCl) solution (=saltiness), a 2% aqueous sucrose solution (=sweetness) were added 10 ppm linear aliphatic alcohols having 2-11 carbon atoms, respectively. Sensory evaluation was performed in which intensity of taste sensed when each of the aqueous solutions is introduced into the mouth is defined as “Intensity of umami” for the aqueous MSG solution, “Intensity of saltiness” for the aqueous NaCl solution and “Intensity of sweetness” for the aqueous sucrose solution. The score of alcohol-free taste intensity was set to 3.0, and taste intensity upon addition was evaluated as follows. The results are shown in Table 3. • 1.0: Much weaker • 2.0: Weaker • 3.0: Similar • 4.0: Stronger • 5.0: Much stronger
(§5) To a 0.2% aqueous sodium glutamate (MSG) solution (=umami), a 0.8% aqueous salt (NaCl) solution (=saltiness), a 2% aqueous sucrose solution (=sweetness) were added 1 ppm n-hexanal and 1ppm 1-octene-3-ol each, respectively. Sensory evaluation was performed in which the intensity of taste sensed when each of the aqueous solutions is introduced into the mouth is defined as “Intensity of umami” for the aqueous MSG solution, “Intensity of saltiness” for the aqueous NaCl solution and “Intensity of sweetness” for the aqueous sucrose solution. The score of additive-free taste intensity was set to 3.0, and taste intensity upon addition was evaluated as follows. The results are shown in Table 9. • 1.0: Much weaker • 2.0: Weaker • 3.0: Similar • 4.0: Stronger • 5.0: Much stronger

[5] = Sensory evaluation, intensity of saltiness in aqueous NaCl solution; settings: additive-free = 3.0
Description: as §1, §3, §4, §5

[6] = Sensory evaluation, intensity of sweetness in aqueous sucrose solution; settings: additive-free = 3.0
Description: as §1, §3, §4, §5

[7] = Sensory evaluation whether sucrose usage can be reduced; settings: 10 ppm added to 1.5% aqueous sucrose solution
Description: as §1
Evaluation was conducted to find whether sucrose usage can be reduced by the taste enhancing effects. To a 1.5% aqueous sucrose solution was added 10 ppm n-hexanal or 10 ppm 1-octen-3-ol. Taste intensity was determined in the sensory evaluation where the taste intensity of the 1.5% sucrose solution was set to 3.0. For comparison, sensory evaluation was also performed for a 2.0% and 1.8% concentration of aqueous sucrose solution. The sensory evaluation was evaluated as follows. The results are shown in Table 6. • 1.0: Much weaker • 2.0: Weaker • 3.0: Similar • 4.0: Stronger • 5.0: Much stronger

[8] = Sensory evaluation, intensity of saltiness in aqueous NaCl solution; settings: additive-free = 3.0, scale 1.0-5.0
[9] = Sensory evaluation, intensity of umami in aqueous MSG solution; settings: additive-free = 3.0, scale 1.0-5.0
[10] = Sensory evaluation, intensity of sweetness in aqueous sucrose solution; settings: additive-free = 3.0, scale 1.0-5.0
[11] = Sensory evaluation, intensity of saltiness in diluted soy sauce; settings: 10 ppm in soy sauce diluted to 2% in water; aldehyde-free = 3.0; scale 1.0-5.0
Description: as §1, §2

CCCCCC=O [n-hexanal]
Intensity of umami [1]: 4.5 | Concentration of aqueous NaCl solution of similar saltiness intensity [2]: ~0.8% | Scores in sensory evaluation (taste intensity, saltiness) ([2]; 0.5% NaCl solution = 3.0, scale 1.0-5.0): 4.0 | Intensity of sweetness [3]: 4.5 | Intensity of umami, Aqueous MSG solution ([4]; 1 ppm added to 0.2% MSG, scale 1.0-5.0): 4.3 | Intensity of umami, Aqueous MSG solution ([4]; 10 ppm added to 0.2% MSG, 1.0 much weaker to 5.0 much stronger, mean of three individuals, nose clip): 5.0 | Intensity of saltiness, Aqueous NaCl solution ([5]; 1 ppm added to 0.8% NaCl, scale 1.0-5.0): 4.3 | Intensity of saltiness, Aqueous NaCl solution ([5]; 10 ppm added to 0.8% NaCl, 1.0 much weaker to 5.0 much stronger): 5.0 | Intensity of sweetness, Aqueous sucrose solution ([6]; 1 ppm added to 2% sucrose, scale 1.0-5.0): 3.8 | Intensity of sweetness, Aqueous sucrose solution ([6]; 10 ppm added to 2% sucrose, 1.0 much weaker to 5.0 much stronger): 4.5 | Concentration of aqueous sucrose solution of comparable/similar sweetness intensity [7]: ~2.0% | Scores in sensory evaluation (taste intensity, sweetness) ([7]; 1.5% sucrose solution = 3.0, scale 1.0-5.0): 4.0 | Intensity of saltiness, Aqueous NaCl solution ([8]; 0.001 ppm added to 0.8% NaCl): 3.5 | Intensity of saltiness, Aqueous NaCl solution ([8]; 0.01 ppm added to 0.8% NaCl): 4.0 | Intensity of saltiness, Aqueous NaCl solution ([8]; 0.1 ppm added to 0.8% NaCl): 4.2 | Intensity of saltiness, Aqueous NaCl solution ([8]; 100 ppm added to 0.8% NaCl): 5.0 | Intensity of saltiness, Aqueous NaCl solution ([8]; 1000 ppm added to 0.8% NaCl): 5.0 | Intensity of umami, Aqueous MSG solution ([9]; 0.001 ppm added to 0.2% MSG): 3.5 | Intensity of umami, Aqueous MSG solution ([9]; 0.01 ppm added to 0.2% MSG): 4.0 | Intensity of umami, Aqueous MSG solution ([9]; 0.1 ppm added to 0.2% MSG): 4.2 | Intensity of umami, Aqueous MSG solution ([9]; 100 ppm added to 0.2% MSG): 5.0 | Intensity of umami, Aqueous MSG solution ([9]; 1000 ppm added to 0.2% MSG): 5.0 | Intensity of sweetness, Aqueous sucrose solution ([10]; 0.001 ppm added to 2% sucrose): 3.5 | Intensity of sweetness, Aqueous sucrose solution ([10]; 0.01 ppm added to 2% sucrose): 3.8 | Intensity of sweetness, Aqueous sucrose solution ([10]; 0.1 ppm added to 2% sucrose): 3.8 | Intensity of sweetness, Aqueous sucrose solution ([10]; 100 ppm added to 2% sucrose): 4.5 | Intensity of sweetness, Aqueous sucrose solution ([10]; 1000 ppm added to 2% sucrose): 5.0 | Intensity of saltiness [11]: 4.5
